In patent US6835382B2, “Ii peptide therapeutics to enhance antigen presentation” (University of Massachusetts, priority 1996, dated 2004):
Non-standard residues stand in square brackets, D forms with d. Cit = NC(=O)NCCC[C@H](N)C(=O)O; Orn = NCCC[C@H](N)C(=O)O

Experiments:
[1] = molecular target: T1, murine E^d MHC class II allele (Mus musculus, UniProt P01904+P01915); experiment: simultaneous assay, E^d allele (A20 APC, G28.C9 T hybridoma, HEL106-116; HT-2 [3H]TdR readout); type: cell-based; set-up: The A20 and CH27 B cell lymphoma lines express H-2^d and H-2^k alleles, respectively; endogenous in cells; host or cells: A20 B cell lymphoma (mitomycin C-treated or paraformaldehyde-fixed); settings: for Times Baseline Response, Ed: Table 3
T1 sequence (P01904 26-255): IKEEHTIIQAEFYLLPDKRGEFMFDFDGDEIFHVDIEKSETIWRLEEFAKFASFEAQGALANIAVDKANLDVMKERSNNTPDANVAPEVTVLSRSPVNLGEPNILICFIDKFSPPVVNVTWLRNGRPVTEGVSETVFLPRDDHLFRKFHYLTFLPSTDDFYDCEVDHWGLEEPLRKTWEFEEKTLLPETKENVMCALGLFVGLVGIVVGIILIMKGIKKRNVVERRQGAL
T1 sequence (P01915 27-264 limits assumed): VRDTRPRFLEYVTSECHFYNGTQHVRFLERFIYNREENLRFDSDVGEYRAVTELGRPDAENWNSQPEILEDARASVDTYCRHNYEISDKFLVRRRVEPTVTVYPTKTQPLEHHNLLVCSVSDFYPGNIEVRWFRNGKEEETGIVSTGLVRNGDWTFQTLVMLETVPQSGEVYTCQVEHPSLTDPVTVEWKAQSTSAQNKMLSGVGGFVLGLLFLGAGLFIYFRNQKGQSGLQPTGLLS
Description: (§1) Examples 1-4 (Tables 1-18) will be briefly considered in order to establish the concept of tolerance discussed above. These examples describe experimental results observed in the so-called “simultaneous” assay. In the simultaneous assay four principle components are cultured together for a 24 hour period. The components of this culture, which are added simultaneously, are: (a) an antigenic peptide characterized by the ability to bind specifically into the antigenic peptide binding groove of an MHC class II molecule, (b) mitomycin C-treated, MHC class II-positive antigen presenting cells (APC) bearing the MHC class II allele required for binding of the specific antigenic peptide, and presentation of the specific antigenic peptide to the antigenic peptide-specific T cell hybridoma, (c) an effector compound of the present invention, and (d) an MHC class II allele-restricted T cell hybridoma specific for the antigenic peptide and the MHC class II allele restricting its presentation. Following incubation of this primary culture, an aliquot of its supernatant is transferred into a second culture well for incubation with an interleukin-dependent lymphoblastoid cell line. The degree of stimulation of that second, indicator cell by the interleukins which had been released from the activated T cell hybridoma in the primary culture is measured by quantitating tritiated thymidine deoxyribose {[^3H]TdR} uptake into the DNA of the HT-2 indicator cells of that second culture.
(§2) In the “simultaneous assay” the four components of the assay are cultured together for a 24 h period. The components of this primary culture, added at the same time or simultaneously, are: (a) the antigenic peptide, (b) mitomycin C-treated, MHC class II-positive antigen presenting cells (APC) with the MHC class II allele required for binding of the specific antigenic peptide and its presentation to the antigenic peptide-specific T cell hybridoma, (c) an AE101 series effector peptide, and (d) MHC class II allele-restricted T cell hybridoma specific for the antigenic peptide and the MHC class II allele restricting its presentation. At the end of the incubation of this primary culture, an aliquot of its supernatant is transferred into a second culture well for incubation with an interleukin-dependent lymphoblastoid cell line. The degree of stimulation of that second, indicator cell by the interleukins which had been released from the activated T cell hybridoma in the primary culture is measured by quantitating tritiated thymidine deoxyribose {[^3H]TdR} uptake into the DNA of the HT-2 indicator cells of that second culture.
(§3) For these various assays, the following antigenic peptides were used: HEL11-25, hen egg lysozyme 11-25, AMKRHGLDNYRGYSL(A^d) (SEQ ID NO:5); HEL46-61, hen egg lysozyme 46-61, NTDGSTDYGILQINSR(Ak) (SEQ ID NO:6); HEL106-116, hen egg lysozyme 106-116, NAWVAWRNRCK (E^d) (SEQ ID NO:7); PGCC81-104, pigeon cytochrome c 81-104, […] (Ek) (SEQ ID NO:8), and THMCC82-103, tobacco hornworm moth cytochrome c 82-103, […] (Ek) (SEQ ID NO:9). AE101 series peptides were obtained from commercial sources. In general, the purity and composition of each peptide was confirmed by HPLC separation and mass spectrometry. The native protein antigens were HEL, hen egg lysozyme, and PGCC, pigeon cytochrome C. They were obtained from commercial sources.
(§4) For the experiments of these Examples, several T cell hybridomas, which are specific for certain antigenic peptides, were used. The TPc9.1 T hybridoma is specific for pigeon cytochrome C 81-104 peptide presented on the murine class II MHC allele E^k. The TPc9.1 hybridoma responds heteroclitically to tobacco hornworm moth cytochrome c 82-103 on E^k. The 3A9 T hybridoma is specific for hen egg lysozyme 46-61 on A^k. The 9.30.B2 hybridoma is specific for hen egg lysozyme 11-25 on A^d, and the G28.C9 hybridoma is specific for hen egg lysozyme 106-116 on E^d. […]

[2] = test system: murine E^k MHC class II allele; experiment: simultaneous assay, E^k allele (CH27 APC, TPc9.1 T hybridoma, THMCC82-103 or PGCC81-104); type: cell-based; settings: for Times Baseline Response, Ek: Table 3, values reduced relative to E^d by a factor of 10
Description: as §1, §2, §3, §4

[3] = Table 6, AE peptide 64 μM, supernatant 1:4
[4] = Table 6, AE peptide 64 μM, supernatant 1:4, reduced by a factor of 5
[5] = Table 10, AE peptide 16 μM (second value), supernatant 1:2
[6] = Table 10, AE peptide 64 μM (first value), supernatant 1:2
[7] = Table 10, AE peptide 64 μM, supernatant 1:2 (first value)
[8] = Table 10, AE peptide 64 μM, supernatant 1:4 (second value)
[9] = Table 9, AE peptide 64 μM, supernatant 1:4
[10] = Table 9, AE peptide 64 μM, supernatant 1:4, normalized by a factor of 5
[11] = Table 5, AE peptide 64 μM, supernatant 1:4
[12] = Table 5, AE peptide 64 μM, supernatant 1:4, normalized to E^d by a factor of 10
[13] = AE peptide 64 μM, supernatant 1:4

In the case of Ac-LRM N LPK-NH2 [AE216], the “Times Baseline Response, E^d” value [1, 3] is reported as 2.4 and the “Times Baseline Response, E^k” value [2, 4] is reported as 3.3.

In the case of Ac-YRMKLPASAK-NH2 [AE126], the “Times Baseline Response, E^d” value [1, 5] is reported as 6.8, the “Times Baseline Response, E^d” value [1, 6] is reported as 18.2 and the “Times Baseline Response, E^k” value [2, 7] is reported as 53.4. For the same substance, the “Times Baseline Response, E^k” value [2, 8] was 56.4.

With Ac-LRMKLP E-NH2 [AE245] the “Times Baseline Response, E^d” value [1, 9] was 0.9 and the “Times Baseline Response, E^k” value [2, 10] was 2.8.

Ac-LR[Cit]KLPK-NH2 [AE196] was tested, and the “Times Baseline Response, E^d” value [1, 11] was 13.6 and the “Times Baseline Response, E^k” value [2, 12] was 18.4.

Ac-LRMKLpk-NH2 [AE173] was tested, and the “Times Baseline Response, E^d” value ([1]; Table 12, AE peptide 1 μM (fourth value), supernatant 1:2) was 2, the “Times Baseline Response, E^d” value ([1]; Table 12, AE peptide 4 μM (third value), supernatant 1:2) was 10 and the “Times Baseline Response, E^d” value ([1]; Table 12, AE peptide 16 μM (second value), supernatant 1:2) was 92. For the same substance, the “Times Baseline Response, E^d” value ([1]; Table 12, AE peptide 64 μM (first value), supernatant 1:2) was 123, the “Times Baseline Response, E^k” value ([2]; Table 12, AE peptide 1 μM (fourth value), supernatant 1:4) was 2.1 and the “Times Baseline Response, E^k” value ([2]; Table 12, AE peptide 4 μM (third value), supernatant 1:4) was 4.3. The “Times Baseline Response, E^k” value ([2]; Table 12, AE peptide 16 μM (second value), supernatant 1:4) was 25.0 and the “Times Baseline Response, E^k” value ([2]; Table 12, AE peptide 64 μM (first value), supernatant 1:4) was 51.3.

In the case of Ac-N RMKLPK-NH2 [AE187], the “Times Baseline Response, Ed” value [1, 13] is reported as 6.3 and the “Times Baseline Response, Ek” value [2, 13] is reported as 9.5.

In the case of Ac-LRMKLP[Orn]-NH2 [AE240], the “Times Baseline Response, E^d” value [1, 9] is reported as 9.8 and the “Times Baseline Response, E^k” value [2, 10] is reported as 11.5.

In the case of Ac-D RMKLPK-NH2 [AE185], the “Times Baseline Response, Ed” value [1, 13] is reported as 1.2 and the “Times Baseline Response, Ek” value [2, 13] is reported as 0.9.

Ac-YRMKLPKSAA-NH2 [AE128] was tested, and the “Times Baseline Response, E^d” value [1, 5] was 29.5, the “Times Baseline Response, E^d” value [1, 6] was 33.0 and the “Times Baseline Response, E^k” value [2, 7] was 51.9. For the same substance, the “Times Baseline Response, E^k” value [2, 8] was 58.6.

In the case of Ac-LRM[Cit]LPK-NH2 [AE211], the “Times Baseline Response, E^d” value [1, 3] is reported as 1.7 and the “Times Baseline Response, E^k” value [2, 4] is reported as 3.4.

In the case of Ac-YRMALPKSAK-NH2 [AE123], the “Times Baseline Response, E^d” value [1, 5] is reported as 10.7, the “Times Baseline Response, E^d” value [1, 6] is reported as 24.0 and the “Times Baseline Response, E^k” value [2, 7] is reported as 65.0. The “Times Baseline Response, E^k” value [2, 8] was 51.1.

Ac-LR K KLPK-NH2 [AE199] was tested, and the “Times Baseline Response, E^d” value [1, 11] was 12.1 and the “Times Baseline Response, E^k” value [2, 12] was 22.9.

With Ac-[Cit]RMKLPK-NH2 [AE181] the “Times Baseline Response, Ed” value [1, 13] was 9.0 and the “Times Baseline Response, Ek” value [2, 13] was 11.5.

With Ac-LRMKLP D-NH2 [AE244] the “Times Baseline Response, E^d” value [1, 9] was 0.9 and the “Times Baseline Response, E^k” value [2, 10] was 2.7.

Ac-LR F KLPK-NH2 [AE204] was tested, and the “Times Baseline Response, E^d” value [1, 11] was 14.0 and the “Times Baseline Response, E^k” value [2, 12] was 31.8.

Ac-E RMKLPK-NH2 [AE186] was tested, and the “Times Baseline Response, Ed” value [1, 13] was 2.5 and the “Times Baseline Response, Ek” value [2, 13] was 1.3.

Ac-F RMKLPK-NH2 [AE189] was tested, and the “Times Baseline Response, Ed” value [1, 13] was 12.1 and the “Times Baseline Response, Ek” value [2, 13] was 18.2.

With Ac-LR Y KLPK-NH2 [AE205] the “Times Baseline Response, E^d” value [1, 11] was 13.9 and the “Times Baseline Response, E^k” value [2, 12] was 27.4.

Ac-LRMKLP M-NH2 [AE250] was tested, and the “Times Baseline Response, E^d” value [1, 9] was 13.9 and the “Times Baseline Response, E^k” value [2, 10] was 21.3.

For Ac-M RMKLPK-NH2 [AE190], the “Times Baseline Response, Ed” value [1, 13] was 9.8 and the “Times Baseline Response, Ek” value [2, 13] was 15.2.
